From US12187773B2, “Modified GIP peptide analogues” (Antag Therapeutics ApS, priority 2018, dated 2025)
Like-named read-outs stand apart in the source and are kept apart here. *1 amine or outer side, *2 acyl side, *3 side chain or, on linkers, in order; H or OH if unused. Where a SMILES comes first, the peptide text is derived from it. Side-chain parts run from the residue outwards. [ ]: non-standard residue; d: D form. The star is where a group is joined. C18 diacid = O=C(O)CCCCCCCCCCCCCCCCC(=O)*; C16 diacid = O=C(O)CCCCCCCCCCCCCCC(=O)*; γGlu = O=C(O)[C@H](CCC(=O)[*:2])N[*:1]; pGlu = O=C1CC[C@@H](C(=O)O)N1; AEEA = NCCOCCOCC(=O)O

Experiments:
[1] = Elimination half-life (T1/2) estimated in Göttingen minipigs; type: in vivo
Experimental: 2-3 Göttingen minipigs were subcutaneously administered one of the GIP analogues of the present invention (1-10 nmol/kg, total volume 2-6 mL) and blood samples were collected before and up to 432 hours post subcutaneous administration.) from a central venous catheter. The catheter was flushed with saline and heparin between samples. Blood was collected into cold EDTA tubes, centrifuged and plasma was kept at −20° C. pending analyses.
Concentrations of the acylated GIP(3-30)NH2 or GIP(5-30)NH2 analogues in blood samples from Göttingen minipigs were analyzed by RIA. Analogues' immunoreactivity was determined using antiserum Ab95234, Ab95235, Ab95236, a polyclonal in-house antibody raised in rabbits specific for either the mid region of GIP(1-30)NH2 or amidated C-terminus of GIP(3-30)NH2.
In addition to the hormone analysis, blood concentrations of AT374, 380, 382-385, 392-393 were determined by LC/MS performed by Red Glead Discovery AB, Lund, Sweden. The plasma samples were precipitated by addition of 3 parts ethanol followed by thorough mixing. After centrifugation and dilution of the supernatant, the samples were analyzed by LC-MS/MS and compared with a 9-point calibration curve. The calibration curves were prepared in naïve plasma matrix from Göttingen minipigs.

GLP1 receptor (GLP1R) = target: T1, GLP1 receptor (GLP1R) (Homo sapiens, UniProt P43220); assay: cAMP assay - selectivity, antagonism at GLP1 receptor; type: cell-based; details: Table 3A; COS-7 cells; agonist GLP1 at 50-80% of maximal cAMP
T1 construct: expressed in transfected cells; host or cells: COS-7 (transient)
T1 sequence (P43220 24-463, species assumed): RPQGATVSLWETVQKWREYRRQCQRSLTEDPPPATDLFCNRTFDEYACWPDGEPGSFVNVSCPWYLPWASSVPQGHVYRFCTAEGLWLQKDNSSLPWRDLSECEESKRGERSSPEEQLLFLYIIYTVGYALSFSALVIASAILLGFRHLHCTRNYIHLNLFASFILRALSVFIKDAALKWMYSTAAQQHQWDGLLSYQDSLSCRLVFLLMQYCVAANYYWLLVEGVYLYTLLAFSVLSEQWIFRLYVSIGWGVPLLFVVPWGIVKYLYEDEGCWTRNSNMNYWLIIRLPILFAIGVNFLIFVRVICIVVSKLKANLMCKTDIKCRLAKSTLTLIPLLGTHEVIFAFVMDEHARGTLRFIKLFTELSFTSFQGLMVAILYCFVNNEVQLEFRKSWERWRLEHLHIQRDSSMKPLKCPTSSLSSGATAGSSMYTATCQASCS
Experimental: Transient transfected COS-7 cells expressing the either of the GLP1 receptor (GLP1R), GLP2 receptor (GLP2R), glucagon receptor (GcgR) or secretin receptor (SCTR) were seeded in white 96-well plates with a density of 3.5*10^4/well. The day after, the cells were washed twice with Hepes buffered saline (HBS) buffer and incubated with HBS and 1 mM 3-isobutyl-1-methylxanthine (IBMX) for 30 min at 37° C. To test for agonistic properties, ligands were added and incubated for 30 min at 37° C. In order to test for antagonistic properties, the cells were preincubated with the antagonists for 10 min prior to the addition the natural agonist for the expressed receptor (GLP1 for GLP1R expressing cells, GLP2 for GLP2R expressing cells, glucagon for the GcgR and secretin for the SCTR) and subsequent incubated for 20 additional min. […] The HitHunter™ cAMP XS assay (DiscoveRx) was carried out according to the manufacturer's instructions.

human GIP receptor = target: T2, human GIP receptor (Homo sapiens, UniProt P48546); assay: cAMP antagonism (CisBio cAMP Dynamic 2 HTRF assay); type: cell-based; parameters: pCMV-Script vector
T2 sequence (P48546 22-466): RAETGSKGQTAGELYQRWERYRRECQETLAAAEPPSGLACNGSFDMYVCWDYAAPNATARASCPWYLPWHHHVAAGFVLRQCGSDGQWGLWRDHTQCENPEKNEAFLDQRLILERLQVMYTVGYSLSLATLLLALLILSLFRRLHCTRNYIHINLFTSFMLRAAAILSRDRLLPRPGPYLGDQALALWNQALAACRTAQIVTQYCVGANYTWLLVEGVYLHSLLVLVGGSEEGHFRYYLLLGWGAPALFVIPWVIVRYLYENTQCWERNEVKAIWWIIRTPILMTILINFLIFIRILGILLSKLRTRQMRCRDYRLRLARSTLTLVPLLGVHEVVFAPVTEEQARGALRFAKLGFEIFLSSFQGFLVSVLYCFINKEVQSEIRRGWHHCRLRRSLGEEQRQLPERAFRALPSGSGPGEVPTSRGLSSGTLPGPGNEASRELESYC
Method in brief: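 Four-parameter fits of cAMP dose-response gave pIC50. cAMP fall was quantified by HTRF competition, ratio 665/620 nm after 60 min at room temperature, against a cAMP standard curve.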

[2] = Göttingen, minipig, plasma, subcutaneous, Example 1, read-out: T1/2 (converted)
[3] = sc, Table 1B, species not given, unit h, LC/MS in Göttingen minipig plasma for these IDs, subcutaneous 1-10 nmol/kg, read-out: T½ (converted)
[4] = GIPR, Antagonism, nM, Table 3C, CisBio assay
[5] = Table 1C, CisBio, HEK-293 cells
[6] = cAMP antagonism, nM (IC50), Table 1C, CisBio, HEK-293 cells, agonist GIP1-42 at EC50

Row | SMILES | half-life [1, 2] | half-life [1, 3] | GLP-1R, Antagonism, nM (GLP1 receptor (GLP1R)) | IC50 (human GIP receptor; [4]) | cAMP antagonism, % inhib (human GIP receptor; [5]) | GIPR, Antagonism, % inhib (human GIP receptor; Table 3C, CisBio assay) | IC50 (human GIP receptor; [6])
1 | CC[C@H](C)[C@H](NC(=O)[C@H](CO)NC(=O)[C@H](Cc1ccc(O)cc1)NC(=O)[C@H](CC(=O)O)NC(=O)[C@H](CO)NC(=O)[C@@H](NC(=O)[C@H](Cc1ccccc1)NC(=O)[C@@H](NC(=O)CNC(=O)[C@@H]1CCC(=O)N1)[C@@H](C)O)[C@@H](C)CC)C(=O)N[C@@H](C)C(=O)N[C@@H](CCSC)C(=O)N[C@@H](CC(=O)O)C(=O)N[C@@H](CCCNC(=N)N)C(=O)N[C@H](C(=O)N[C@@H](CCCCNC(=O)COCCOCCNC(=O)COCCOCCNC(=O)COCCOCCNC(=O)CC[C@H](NC(=O)CCCCCCCCCCCCCCCCC(=O)O)C(=O)O)C(=O)N[C@@H](CCC(N)=O)C(=O)N[C@@H](CCC(N)=O)C(=O)N[C@@H](CC(=O)O)C(=O)N[C@@H](Cc1ccccc1)C(=O)N[C@H](C(=O)N[C@@H](CC(N)=O)C(=O)N[C@@H](Cc1c[nH]c2ccccc12)C(=O)N[C@@H](CC(C)C)C(=O)N[C@@H](CC(C)C)C(=O)N[C@@H](C)C(=O)N[C@@H](CCC(N)=O)C(=O)N[C@@H](CCCNC(=N)N)C(N)=O)C(C)C)[C@@H](C)CC [AT382] ([pGlu]GTFISDYSIAMDRIK([AEEA-AEEA-AEEA-γGlu-C18 diacid])QQDFVNWLLAQR-NH2) | 29 h | 29 h | No antagonism | 25.1 nM | 83% | 83% | 25.1 nM
2 | CC[C@H](C)[C@H](NC(=O)[C@H](CO)NC(=O)[C@H](Cc1ccc(O)cc1)NC(=O)[C@H](CC(=O)O)NC(=O)[C@H](CO)NC(=O)[C@@H](NC(=O)[C@H](Cc1ccccc1)NC(=O)[C@@H](NC(=O)CNC(=O)[C@@H](N)CO)[C@@H](C)O)[C@@H](C)CC)C(=O)N[C@@H](C)C(=O)N[C@@H](CCSC)C(=O)N[C@@H](CC(=O)O)C(=O)N[C@@H](CCCNC(=N)N)C(=O)N[C@H](C(=O)N[C@@H](CCCCNC(=O)COCCOCCNC(=O)COCCOCCNC(=O)COCCOCCNC(=O)CC[C@H](NC(=O)CCCCCCCCCCCCCCC(=O)O)C(=O)O)C(=O)N[C@@H](CCC(N)=O)C(=O)N[C@@H](CCC(N)=O)C(=O)N[C@@H](CC(=O)O)C(=O)N[C@@H](Cc1ccccc1)C(=O)N[C@H](C(=O)N[C@@H](CC(N)=O)C(=O)N[C@@H](Cc1c[nH]c2ccccc12)C(=O)N[C@@H](CC(C)C)C(=O)N[C@@H](CC(C)C)C(=O)N[C@@H](C)C(=O)N[C@@H](CCC(N)=O)C(=O)N[C@@H](CCCNC(=N)N)C(N)=O)C(C)C)[C@@H](C)CC [AT383] (H-SGTFISDYSIAMDRIK([AEEA-AEEA-AEEA-γGlu-C16 diacid])QQDFVNWLLAQR-NH2; N-terminus assumed) |  | 12 h | No antagonism | 12.6 nM | 89% | 89% | 12.6 nM
3 | CC[C@H](C)[C@H](NC(=O)[C@H](CO)NC(=O)[C@H](Cc1ccc(O)cc1)NC(=O)[C@H](CC(=O)O)NC(=O)[C@H](CO)NC(=O)[C@@H](NC(=O)[C@H](Cc1ccccc1)NC(=O)[C@@H](NC(=O)CNC(=O)[C@@H](N)CO)[C@@H](C)O)[C@@H](C)CC)C(=O)N[C@@H](C)C(=O)N[C@@H](CCSC)C(=O)N[C@@H](CC(=O)O)C(=O)N[C@@H](CCCNC(=N)N)C(=O)N[C@H](C(=O)N[C@@H](CCCCNC(=O)COCCOCCNC(=O)COCCOCCNC(=O)CC[C@H](NC(=O)CCCCCCCCCCCCCCCCC(=O)O)C(=O)O)C(=O)N[C@@H](CCC(N)=O)C(=O)N[C@@H](CCC(N)=O)C(=O)N[C@@H](CC(=O)O)C(=O)N[C@@H](Cc1ccccc1)C(=O)N[C@H](C(=O)N[C@@H](CC(N)=O)C(=O)N[C@@H](Cc1c[nH]c2ccccc12)C(=O)N[C@@H](CC(C)C)C(=O)N[C@@H](CC(C)C)C(=O)N[C@@H](C)C(=O)N[C@@H](CCC(N)=O)C(=O)N[C@@H](CCCNC(=N)N)C(N)=O)C(C)C)[C@@H](C)CC [AT384] (H-SGTFISDYSIAMDRIK([AEEA-AEEA-γGlu-C18 diacid])QQDFVNWLLAQR-NH2; N-terminus assumed) | 36 h | 36 h | No antagonism | 54.1 nM | 97% | 97% | 54.1 nM
4 | CC[C@H](C)[C@H](NC(=O)[C@H](CO)NC(=O)[C@H](Cc1ccc(O)cc1)NC(=O)[C@H](CC(=O)O)NC(=O)[C@H](CO)NC(=O)[C@@H](NC(=O)[C@H](Cc1ccccc1)NC(=O)[C@@H](NC(=O)CNC(=O)[C@@H](N)CO)[C@@H](C)O)[C@@H](C)CC)C(=O)N[C@@H](C)C(=O)N[C@@H](CCSC)C(=O)N[C@@H](CC(=O)O)C(=O)N[C@@H](CCCNC(=N)N)C(=O)N[C@H](C(=O)N[C@@H](CCCCNC(=O)COCCOCCNC(=O)COCCOCCNC(=O)COCCOCCNC(=O)CC[C@H](NC(=O)CCCCCCCCCCCCCCCCC(=O)O)C(=O)O)C(=O)N[C@@H](CCC(N)=O)C(=O)N[C@@H](CCC(N)=O)C(=O)N[C@@H](CC(=O)O)C(=O)N[C@@H](Cc1ccccc1)C(=O)N[C@H](C(=O)N[C@@H](CC(N)=O)C(=O)N[C@@H](Cc1c[nH]c2ccccc12)C(=O)N[C@@H](CC(C)C)C(=O)N[C@@H](CC(C)C)C(=O)N[C@@H](C)C(=O)N[C@@H](CCC(N)=O)C(=O)N[C@@H](CCCNC(=N)N)C(N)=O)C(C)C)[C@@H](C)CC [AT385] (H-SGTFISDYSIAMDRIK([AEEA-AEEA-AEEA-γGlu-C18 diacid])QQDFVNWLLAQR-NH2; N-terminus assumed) | 20 h | 20 h | No antagonism | 43 nM | 70% | 70% | 43 nM
5 | CC[C@H](C)[C@H](NC(=O)[C@H](CO)NC(=O)[C@H](Cc1ccc(O)cc1)NC(=O)[C@H](CC(=O)O)NC(=O)[C@H](CO)NC(=O)[C@@H](NC(=O)[C@H](Cc1ccccc1)NC(=O)[C@@H](NC(=O)CNC(=O)[C@@H](N)CO)[C@@H](C)O)[C@@H](C)CC)C(=O)N[C@@H](C)C(=O)N[C@@H](CCSC)C(=O)N[C@@H](CC(=O)O)C(=O)N[C@@H](CCCNC(=N)N)C(=O)N[C@H](C(=O)N[C@@H](CCCCNC(=O)CCCCCCCCCCCCCCCCC(=O)O)C(=O)N[C@@H](CCC(N)=O)C(=O)N[C@@H](CCC(N)=O)C(=O)N[C@@H](CC(=O)O)C(=O)N[C@@H](Cc1ccccc1)C(=O)N[C@H](C(=O)N[C@@H](CC(N)=O)C(=O)N[C@@H](Cc1c[nH]c2ccccc12)C(=O)N[C@@H](CC(C)C)C(=O)N[C@@H](CC(C)C)C(=O)N[C@@H](C)C(=O)N[C@@H](CCC(N)=O)C(=O)N[C@@H](CCCNC(=N)N)C(N)=O)C(C)C)[C@@H](C)CC [AT393] (H-SGTFISDYSIAMDRIK(C18 diacid)QQDFVNWLLAQR-NH2; N-terminus assumed) | 25 h | 25 h | No antagonism | 33.5 nM | 78% | 78% | 33.5 nM
